With `COc1ccc(C=O)cc1` [4-methoxybenzaldehyde] as the molecule, how does the flash point read?
Its flash point is 116.00 °C.

Which flash point does the source give for `CC1=CCC(O)(C(C)C)CC1` (configuration not stated) [4-methyl-1-propan-2-ylcyclohex-3-en-1-ol] here?
Its flash point is 79.00 °C.

For `Cc1ccc(N)cc1N` [4-methylbenzene-1,3-diamine], which flash point is on record?
The flash point was 149.00 °C.

With `Cc1ccc(S(N)(=O)=O)cc1` [4-methylbenzenesulfonamide] as the molecule, how does the flash point read?
The flash point was 202.00 °C.

With `Cc1ccc(S(=O)(=O)O)cc1` [4-methylbenzenesulfonic acid] as the molecule, how does the flash point read?
Its flash point is 184.00 °C.

With `Cc1ccc(S(=O)(=O)Cl)cc1` [4-methylbenzenesulfonyl chloride] as the molecule, how does the flash point read?
Its flash point is 128.00 °C.

For `CN1CCOCC1` [4-methylmorpholine], which flash point is on record?
Its flash point is 24.00 °C.

With `CC1CC(=O)O1` (configuration not stated) [4-methyloxetan-2-one] as the molecule, how does the flash point read?
The flash point was 60.00 °C.

Which flash point does the source give for `C=CCC(C)C` [4-methylpent-1-ene] here?
The flash point was -32.00 °C.

With `CC(C)CC(C)N` (configuration not stated) [4-methylpentan-2-amine] as the molecule, how does the flash point read?
Its flash point is 13.00 °C.

Which flash point does the source give for `CC(=O)OC(C)CC(C)C` (configuration not stated) [4-methylpentan-2-yl acetate] here?
The flash point was 45.00 °C.

For `Cc1ccc(O)cc1` [4-methylphenol], which flash point is on record?
Its flash point is 86.00 °C.

Which flash point does the source give for `Cc1ccncc1` [4-methylpyridine] here?
Its flash point is 57.00 °C.

With `O=[N+]([O-])c1ccc(Nc2ccccc2)cc1` [4-nitro-N-phenylaniline] as the molecule, how does the flash point read?
The flash point was 190.00 °C.

With `Nc1ccc([N+](=O)[O-])cc1` [4-nitroaniline] as the molecule, how does the flash point read?
The flash point was 199.00 °C.

Which flash point does the source give for `O=C(O)c1ccc([N+](=O)[O-])cc1` [4-nitrobenzoic acid] here?
The flash point was 202.00 °C.

For `O=[N+]([O-])c1ccc(O)cc1` [4-nitrophenol], which flash point is on record?
Its flash point is 192.00 °C.

For `CCCCCCCCCc1ccc(O)cc1` [4-nonylphenol], which flash point is on record?
Its flash point is 113.00 °C.

For `CCCCCCCCc1ccc(Nc2ccc(CCCCCCCC)cc2)cc1` [4-octyl-N-(4-octylphenyl)aniline], which flash point is on record?
The flash point was 213.00 °C.

With `Oc1ccc(-c2ccccc2)cc1` [4-phenylphenol] as the molecule, how does the flash point read?
Its flash point is 166.00 °C.

With `CC(C)(C)c1ccc(O)cc1` [4-tert-butylphenol] as the molecule, how does the flash point read?
Its flash point is 113.00 °C.

Which flash point does the source give for `CCCCOCCOCCOCc1cc2c(cc1CCC)OCO2` [5-[2-(2-butoxyethoxy)ethoxymethyl]-6-propyl-1,3-benzodioxole] here?
The flash point was 171.00 °C.

Which flash point does the source give for `C=Cc1ccc(C)nc1` [5-ethenyl-2-methylpyridine] here?
Its flash point is 74.00 °C.

For `CC1CCC(C(C)C)C(O)C1` (configuration not stated) [5-methyl-2-propan-2-ylcyclohexan-1-ol], which flash point is on record?
Its flash point is 91.00 °C.

With `Cc1ccc(C(C)C)c(O)c1` [5-methyl-2-propan-2-ylphenol] as the molecule, how does the flash point read?
Its flash point is 110.00 °C.

Which flash point does the source give for `CCC(=O)CC(C)CC` (configuration not stated) [5-methylheptan-3-one] here?
Its flash point is 43.00 °C.

Which flash point does the source give for `CC1CCC(=O)O1` (configuration not stated) [5-methyloxolan-2-one] here?
Its flash point is 81.00 °C.

Which flash point does the source give for `CC(=O)CCC=C(C)C` [6-methylhept-5-en-2-one] here?
Its flash point is 57.00 °C.

Which flash point does the source give for `CC(C)CCCCCO` [6-methylheptan-1-ol] here?
The flash point was 82.00 °C.

For `CC(C)CCCCCOC(=O)C(C)Oc1cc(Cl)c(Cl)cc1Cl` (configuration not stated) [6-methylheptyl 2-(2,4,5-trichlorophenoxy)propanoate], which flash point is on record?
Its flash point is 207.00 °C.

For `CC(C)CCCCCOC(=O)COc1ccc(Cl)cc1Cl` [6-methylheptyl 2-(2,4-dichlorophenoxy)acetate], which flash point is on record?
The flash point was 48.00 °C.

Which flash point does the source give for `C=CC(=O)OCCCCCC(C)C` [6-methylheptyl prop-2-enoate] here?
Its flash point is 91.00 °C.

Which flash point does the source give for `CC(C)(C)CCCCCC(=O)O` [7,7-dimethyloctanoic acid] here?
The flash point was 94.00 °C.

With `C=CC(=C)CCC=C(C)C` [7-methyl-3-methylideneocta-1,6-diene] as the molecule, how does the flash point read?
Its flash point is 39.00 °C.

For `CC(C)CCCCCCCO` [8-methylnonan-1-ol], which flash point is on record?
The flash point was 104.00 °C.

Which flash point does the source give for `CC(C)CCCCCCC=O` [8-methylnonanal] here?
The flash point was 85.00 °C.

For `C=CC(=O)OCCCCCCCC(C)C` [8-methylnonyl prop-2-enoate], which flash point is on record?
The flash point was 116.00 °C.

For `c1ccc2c(c1)[nH]c1ccccc12` [9H-carbazole], which flash point is on record?
The flash point was 220.00 °C.

Which flash point does the source give for `c1ccc2c(c1)Cc1ccccc1-2` [9H-fluorene] here?
The flash point was 151.00 °C.

With `c1ccc2c(c1)Nc1ccccc1S2` [10H-phenothiazine] as the molecule, how does the flash point read?
Its flash point is 202.00 °C.

Which flash point does the source give for `CC(=O)OC1CC2CCC1(C)C2(C)C` (configuration not stated) [(1,7,7-trimethyl-2-bicyclo[2.2.1]heptanyl) acetate] here?
Its flash point is 88.00 °C.

With `CC1(C)C2CC[C@@]1(C)C(=O)C2` [(1R)-1,7,7-trimethylbicyclo[2.2.1]heptan-2-one] as the molecule, how does the flash point read?
The flash point was 64.00 °C.

Which flash point does the source give for `CC1(C)[C@@H]2CC[C@@]1(C)C(=O)C2` [(1R,4R)-1,7,7-trimethylbicyclo[2.2.1]heptan-2-one] here?
The flash point was 47.00 °C.

For `CC1(C)[C@@H]2CC[C@]1(C)[C@H](O)C2` [(1S,2R,4R)-1,7,7-trimethylbicyclo[2.2.1]heptan-2-ol], which flash point is on record?
Its flash point is 66.00 °C.

With `CC(=O)OC1CC(C)OC(C)O1` (configuration not stated) [(2,6-dimethyl-1,3-dioxan-4-yl) acetate] as the molecule, how does the flash point read?
The flash point was 61.00 °C.

For `O=[N+]([O-])C(Br)=Cc1ccccc1` [(2-bromo-2-nitroethenyl)benzene], which flash point is on record?
The flash point was 54.00 °C.

With `COc1ccc(C(=O)c2ccccc2)c(O)c1` [(2-hydroxy-4-methoxyphenyl)-phenylmethanone] as the molecule, how does the flash point read?
Its flash point is 100.00 °C.

With `C=C(C)C1CC=C(C)C(OC(C)=O)C1` (configuration not stated) [(2-methyl-5-prop-1-en-2-ylcyclohex-2-en-1-yl) acetate] as the molecule, how does the flash point read?
Its flash point is 97.00 °C.

With `Cc1ccccc1OP(=O)(Oc1ccccc1)Oc1ccccc1` [(2-methylphenyl) diphenyl phosphate] as the molecule, how does the flash point read?
Its flash point is 232.00 °C.

With `CC(C)=CCC/C(C)=C/CO` [(2E)-3,7-dimethylocta-2,6-dien-1-ol] as the molecule, how does the flash point read?
The flash point was 108.00 °C.

For `C=CC/C=C/C` [(4E)-hexa-1,4-diene], which flash point is on record?
The flash point was -21.00 °C.

Which flash point does the source give for `C=C(C)[C@H]1CC=C(C)C(=O)C1` [(5S)-2-methyl-5-prop-1-en-2-ylcyclohex-2-en-1-one] here?
The flash point was 89.00 °C.

Which flash point does the source give for `Cl/C=C/CCl` [(E)-1,3-dichloroprop-1-ene] here?
The flash point was 35.00 °C.

Which flash point does the source give for `Cc1cn(/C=C/C=O)c(=O)[nH]c1=O` [(E)-3-(5-methyl-2,4-dioxopyrimidin-1-yl)prop-2-enal] here?
The flash point was 207.00 °C.

With `C/C=C/C=O` [(E)-but-2-enal] as the molecule, how does the flash point read?
Its flash point is 13.00 °C.

For `CC/C=C/C#N` [(E)-pent-2-enenitrile], which flash point is on record?
Its flash point is 23.00 °C.

For `C/C=C/CC#N` [(E)-pent-3-enenitrile], which flash point is on record?
The flash point was 38.00 °C.

With `CSC(C)(C)/C=N/O` [(NE)-N-(2-methyl-2-methylsulfanylpropylidene)hydroxylamine] as the molecule, how does the flash point read?
The flash point was 118.00 °C.

With `O=C1C=CCO1` [InChI=1S/C4H4O2/c5-4-2-1-3-6-4/h1-2H,3H2] as the molecule, how does the flash point read?
Its flash point is 101.00 °C.

Which flash point does the source give for `CCN(CC)CCCN` [N',N'-diethylpropane-1,3-diamine] here?
The flash point was 59.00 °C.

Which flash point does the source give for `CN(C)CCCN` [N',N'-dimethylpropane-1,3-diamine] here?
Its flash point is 16.00 °C.

For `NCCCNCCCN` [N'-(3-aminopropyl)propane-1,3-diamine], which flash point is on record?
The flash point was 79.00 °C.

For `NCCNCCNCCN` [N'-[2-(2-aminoethylamino)ethyl]ethane-1,2-diamine], which flash point is on record?
The flash point was 135.00 °C.

With `Cc1ccc(N(C)C)cc1` [N,N,4-trimethylaniline] as the molecule, how does the flash point read?
Its flash point is 76.00 °C.

With `CCN(CC)C(=O)c1cccc(C)c1` [N,N-diethyl-3-methylbenzamide] as the molecule, how does the flash point read?
Its flash point is 155.00 °C.

Which flash point does the source give for `CCN(CC)c1ccccc1` [N,N-diethylaniline] here?
The flash point was 85.00 °C.

For `CCN(CC)CC` [N,N-diethylethanamine], which flash point is on record?
Its flash point is -7.00 °C.

For `CCN(O)CC` [N,N-diethylhydroxylamine], which flash point is on record?
The flash point was 45.00 °C.

Which flash point does the source give for `CCN(CC)C(=O)c1cccnc1` [N,N-diethylpyridine-3-carboxamide] here?
Its flash point is 113.00 °C.

For `CN(C)c1ccccc1` [N,N-dimethylaniline], which flash point is on record?
The flash point was 63.00 °C.

Which flash point does the source give for `CN(C)C(=O)Cl` [N,N-dimethylcarbamoyl chloride] here?
Its flash point is 68.00 °C.

Which flash point does the source give for `c1ccc(N(c2ccccc2)c2ccccc2)cc1` [N,N-diphenylaniline] here?
Its flash point is 180.00 °C.

For `CC(=O)NCCO` [N-(2-hydroxyethyl)acetamide], which flash point is on record?
The flash point was 177.00 °C.

With `CC(=O)Nc1ccc(C)cc1` [N-(4-methylphenyl)acetamide] as the molecule, how does the flash point read?
The flash point was 168.00 °C.

With `CCCCCCCCCCCCCCCCCC(=O)NCCNC(=O)CCCCCCCCCCCCCCCCC` [N-[2-(octadecanoylamino)ethyl]octadecanamide] as the molecule, how does the flash point read?
Its flash point is 280.00 °C.

With `CC(=O)Nc1ccc(C(=O)CCl)cc1` [N-[4-(2-chloroacetyl)phenyl]acetamide] as the molecule, how does the flash point read?
The flash point was 110.00 °C.

Which flash point does the source give for `CN(C)P(=O)(N(C)C)N(C)C` [N-[bis(dimethylamino)phosphoryl]-N-methylmethanamine] here?
Its flash point is 106.00 °C.

Which flash point does the source give for `CCC(C)Nc1c([N+](=O)[O-])cc(C(C)(C)C)cc1[N+](=O)[O-]` (configuration not stated) [N-butan-2-yl-4-tert-butyl-2,6-dinitroaniline] here?
Its flash point is 36.00 °C.

Which flash point does the source give for `CCC(C)=NO` [N-butan-2-ylidenehydroxylamine] here?
Its flash point is 59.00 °C.

Which flash point does the source give for `CCCCN(C(C)=O)c1ccccc1` [N-butyl-N-phenylacetamide] here?
The flash point was 141.00 °C.

Which flash point does the source give for `CCCCN(CCC)N=O` [N-butyl-N-propylnitrous amide] here?
Its flash point is 94.00 °C.

With `CCCC=NO` [N-butylidenehydroxylamine] as the molecule, how does the flash point read?
Its flash point is 58.00 °C.

Which flash point does the source give for `ClNc1ccccc1` [N-chloroaniline] here?
Its flash point is 108.00 °C.

Which flash point does the source give for `CCN(C)N=O` [N-ethyl-N-methylnitrous amide] here?
Its flash point is 76.00 °C.

Which flash point does the source give for `CCCCNC` [N-methylbutan-1-amine] here?
Its flash point is 13.00 °C.

With `CNC=O` [N-methylformamide] as the molecule, how does the flash point read?
The flash point was 98.00 °C.

With `CNC` [N-methylmethanamine] as the molecule, how does the flash point read?
Its flash point is -7.00 °C.

For `CC(=O)Nc1ccccc1` [N-phenylacetamide], which flash point is on record?
The flash point was 174.00 °C.

For `CC(C)NC(C)C` [N-propan-2-ylpropan-2-amine], which flash point is on record?
The flash point was -1.00 °C.

Which flash point does the source give for `CCCNCCC` [N-propylpropan-1-amine] here?
The flash point was 17.00 °C.

Which flash point does the source give for `CCSC(=O)N(CC)C1CCCCC1` [S-ethyl N-cyclohexyl-N-ethylcarbamothioate] here?
The flash point was 139.00 °C.

Which flash point does the source give for `CCSC(=O)Cl` [S-ethyl chloromethanethioate] here?
The flash point was 31.00 °C.

From a flash point compilation (Sun et al. 2020)
